# Experimental data taken from US12240844B2 (Voronoi, Inc., priority 2019, dated 2025).
# What was measured:
# MDA-MB-231 cell line = test: MDA-MB-231 cancer cell proliferation inhibition (Cell Titer-Glo); type: cell-based; conditions: Homo sapiens, MDA-MB-231 triple-negative breast cancer cell line, 72 hours
# Outline: (§1)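 GI50 comes from CellTiter-Glo luminescence, read 10 min after reagent addition at RT, following 72 h compound treatment. Eleven concentrations were used (⅓ steps, highest 10 μM final) on 2000 cells/well. MDA-MB-231 and MDA-MB-468 were grown in DMEM, SHP-77 in RPMI.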
# human DYRK1A and Tau = test: Tau phosphorylation inhibition, ClariCELL Kinase Cell-Based Assay (Carnabio)
# Outline: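 HEK293 cells transiently expressing human DYRK1A and Tau were exposed to compound, then lysed. Released Tau was captured on plate and its phosphorylation quantified by ELISA with a phospho-Tau-specific antibody.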
# [1] = molecular target: T1, LRRK2, LRRK2 (G2019S), DYRK1, CLK1 and TTK kinases (Homo sapiens, UniProt Q13627); test: Enzyme IC50 by Kinase HotSpot service (Reaction Biology Corporation), values marked with *; type: biochemical; conditions: DYRK1, ATP 10 uM
# T1 construct: other: DYRK1; Kinase HotSpot service (Reaction Biology), ATP 10 uM
# Method: (§2) Meanwhile, the enzyme IC50 measurement for some compounds was performed using Kinase HotSpot service (Reaction Biology Corporation); during the test, the ATP concentration was 10 uM, where all were conducted under the same condition; and the concentration of the compound was measured by giving a 3-fold concentration gradient with the highest concentration of […], where the values measured using Kinase HotSpot service (Reaction Biology Corporation) were marked with “*”.
# (§3) All experimental methods were performed as provided in Kinase HotSpot Customer Protocol (http://www.reactionbiology.com//Kinase_Assay_Protocol).
# (§4) In the table below, the following designations were used for the evaluation of enzyme inhibitory ability.
# [2] = molecular target: T2, LRRK2, LRRK2 (G2019S), DYRK1, CLK1 and TTK kinases (Homo sapiens, UniProt Q5S007, G2019S); test: as above; type: biochemical; conditions: LRRK2 (G2019S), ATP 10 uM
# T2 construct: other: LRRK2 (G2019S); Kinase HotSpot service (Reaction Biology), ATP 10 uM
# Method: as §2, §3, §4
# [3] = molecular target: T3, LRRK2, LRRK2 (G2019S), DYRK1, CLK1 and TTK kinases (Homo sapiens, UniProt Q5S007); test: as above; type: biochemical; conditions: LRRK2, ATP 10 uM
# T3 construct: LRRK2 IC50 (marked with *); other: LRRK2; Kinase HotSpot service (Reaction Biology), ATP 10 uM
# Method: as §2, §3, §4
# [4] = molecular target: T4, LRRK2, LRRK2 (G2019S), DYRK1, CLK1 and TTK kinases (Homo sapiens, UniProt P49759); test: as above; type: biochemical; conditions: CLK1, ATP 10 uM
# T4 construct: CLK1 IC50 (marked with *); other: CLK1; Kinase HotSpot service (Reaction Biology), ATP 10 uM
# Method: as §2, §3, §4
# SHP-77 = SHP-77 cancer cell proliferation inhibition (Cell Titer-Glo); type: cell-based; conditions: Homo sapiens, SHP77, SHP-77 small cell lung cancer cell line, 72 hours
# Outline: as §1
# TTK = molecular target: T5, TTK (Homo sapiens, UniProt P33981); test: TTK enzyme inhibition, ADP-Glo kinase assay; type: biochemical; parameters: purchased Signalchem T20-10G; conditions: ATP 5 μM
# T5 sequence (P33981 1-857): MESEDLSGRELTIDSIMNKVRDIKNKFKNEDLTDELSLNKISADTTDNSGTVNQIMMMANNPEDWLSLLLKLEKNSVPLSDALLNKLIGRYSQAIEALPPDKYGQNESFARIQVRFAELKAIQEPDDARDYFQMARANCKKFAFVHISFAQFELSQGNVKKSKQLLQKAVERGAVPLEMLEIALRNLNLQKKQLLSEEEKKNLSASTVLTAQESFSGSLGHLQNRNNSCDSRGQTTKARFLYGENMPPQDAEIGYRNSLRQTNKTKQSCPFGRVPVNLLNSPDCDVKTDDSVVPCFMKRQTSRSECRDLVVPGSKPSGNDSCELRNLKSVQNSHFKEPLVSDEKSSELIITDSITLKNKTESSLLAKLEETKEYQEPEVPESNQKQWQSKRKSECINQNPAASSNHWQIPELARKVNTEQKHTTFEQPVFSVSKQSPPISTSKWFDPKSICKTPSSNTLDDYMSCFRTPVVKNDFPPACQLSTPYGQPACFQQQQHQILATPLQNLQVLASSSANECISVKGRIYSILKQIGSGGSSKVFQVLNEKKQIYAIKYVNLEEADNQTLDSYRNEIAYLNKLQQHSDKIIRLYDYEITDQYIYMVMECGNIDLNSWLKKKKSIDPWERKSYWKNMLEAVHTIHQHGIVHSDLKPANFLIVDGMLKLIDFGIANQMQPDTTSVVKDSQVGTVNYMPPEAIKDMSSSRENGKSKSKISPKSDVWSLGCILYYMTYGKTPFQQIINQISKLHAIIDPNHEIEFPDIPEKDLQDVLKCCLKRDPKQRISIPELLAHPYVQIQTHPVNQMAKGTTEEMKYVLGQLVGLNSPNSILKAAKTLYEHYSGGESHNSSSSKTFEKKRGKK
# Method: In order to evaluate the inhibitory activity of the compounds according to the present invention on LRRK2, LRRK2 (G2019S), DYRK1, CLK1 and TTK kinases, the following experiment was performed.
# Example compounds were reacted with the purified human TTK (Signalchem #T20-10G) enzyme to evaluate the enzyme inhibitory ability as follows. The reaction buffer was used as the composition of 40 mM Tris-HCl pH7.4, 20 mM MgCl2, 0.1 mg/ml BSA (5× kinase buffer, Signalchem #K03-09) and 50 μM DTT (Signalchem #D86-09B), and the reaction of all test materials was performed on the reaction buffer. The compound was diluted with 10 mM DMSO stock in […] by a serial dilution method, and the enzyme activity was measured at the final compound concentrations of 1, 0.333333, 0.111111, 0.037037, 0.012346, 0.004115, 0.001372, 0.000457, 0.000152, 0.000051 and 0.000017 μM. In the test, the human TTK (7.5 ng) enzyme was reacted with the purified ATP (5 μM, Promega #V6930) and an MBP enzyme substrate (0.2 μg, Signalchem M42-51N) at 25° C. for 4 hours, and then the enzyme activity was identified using the in vitro ADP-Glo™ kinase assay (Promega #V6930). The enzyme activity reaction liquid, an ADP-Glo reaction liquid and an enzyme potency detection solution were reacted in a ratio of 2:2:1, and the degree of inhibition of enzyme activity was measured by luminescence. The degree of inhibition of enzyme activity according to the treatment concentrations of the respective compounds was calculated based on the luminescence degree of the enzyme activity of a solvent control group that was not treated with the compound, where the concentration of each compound to inhibit enzyme activity inhibition by 50% was determined as an IC50 (nM) value and obtained using Prism (Version 8.2, GraphPad) software.
# as §4
# T4 sequence (P49759 whole entry, stated change not applied): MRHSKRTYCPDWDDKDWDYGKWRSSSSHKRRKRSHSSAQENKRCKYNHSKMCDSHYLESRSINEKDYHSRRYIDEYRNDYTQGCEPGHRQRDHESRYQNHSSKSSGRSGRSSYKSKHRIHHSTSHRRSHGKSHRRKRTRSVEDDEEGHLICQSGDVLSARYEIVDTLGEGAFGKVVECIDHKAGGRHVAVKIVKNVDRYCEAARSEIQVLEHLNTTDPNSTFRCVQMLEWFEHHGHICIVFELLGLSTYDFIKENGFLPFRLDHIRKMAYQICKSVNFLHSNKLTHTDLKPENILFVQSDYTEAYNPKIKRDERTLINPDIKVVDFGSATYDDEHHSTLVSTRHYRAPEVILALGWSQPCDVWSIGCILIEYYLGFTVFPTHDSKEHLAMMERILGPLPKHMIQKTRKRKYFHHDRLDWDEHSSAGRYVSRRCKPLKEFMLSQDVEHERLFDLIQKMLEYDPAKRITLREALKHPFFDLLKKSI
# T2 sequence (Q5S007 whole entry G2019S): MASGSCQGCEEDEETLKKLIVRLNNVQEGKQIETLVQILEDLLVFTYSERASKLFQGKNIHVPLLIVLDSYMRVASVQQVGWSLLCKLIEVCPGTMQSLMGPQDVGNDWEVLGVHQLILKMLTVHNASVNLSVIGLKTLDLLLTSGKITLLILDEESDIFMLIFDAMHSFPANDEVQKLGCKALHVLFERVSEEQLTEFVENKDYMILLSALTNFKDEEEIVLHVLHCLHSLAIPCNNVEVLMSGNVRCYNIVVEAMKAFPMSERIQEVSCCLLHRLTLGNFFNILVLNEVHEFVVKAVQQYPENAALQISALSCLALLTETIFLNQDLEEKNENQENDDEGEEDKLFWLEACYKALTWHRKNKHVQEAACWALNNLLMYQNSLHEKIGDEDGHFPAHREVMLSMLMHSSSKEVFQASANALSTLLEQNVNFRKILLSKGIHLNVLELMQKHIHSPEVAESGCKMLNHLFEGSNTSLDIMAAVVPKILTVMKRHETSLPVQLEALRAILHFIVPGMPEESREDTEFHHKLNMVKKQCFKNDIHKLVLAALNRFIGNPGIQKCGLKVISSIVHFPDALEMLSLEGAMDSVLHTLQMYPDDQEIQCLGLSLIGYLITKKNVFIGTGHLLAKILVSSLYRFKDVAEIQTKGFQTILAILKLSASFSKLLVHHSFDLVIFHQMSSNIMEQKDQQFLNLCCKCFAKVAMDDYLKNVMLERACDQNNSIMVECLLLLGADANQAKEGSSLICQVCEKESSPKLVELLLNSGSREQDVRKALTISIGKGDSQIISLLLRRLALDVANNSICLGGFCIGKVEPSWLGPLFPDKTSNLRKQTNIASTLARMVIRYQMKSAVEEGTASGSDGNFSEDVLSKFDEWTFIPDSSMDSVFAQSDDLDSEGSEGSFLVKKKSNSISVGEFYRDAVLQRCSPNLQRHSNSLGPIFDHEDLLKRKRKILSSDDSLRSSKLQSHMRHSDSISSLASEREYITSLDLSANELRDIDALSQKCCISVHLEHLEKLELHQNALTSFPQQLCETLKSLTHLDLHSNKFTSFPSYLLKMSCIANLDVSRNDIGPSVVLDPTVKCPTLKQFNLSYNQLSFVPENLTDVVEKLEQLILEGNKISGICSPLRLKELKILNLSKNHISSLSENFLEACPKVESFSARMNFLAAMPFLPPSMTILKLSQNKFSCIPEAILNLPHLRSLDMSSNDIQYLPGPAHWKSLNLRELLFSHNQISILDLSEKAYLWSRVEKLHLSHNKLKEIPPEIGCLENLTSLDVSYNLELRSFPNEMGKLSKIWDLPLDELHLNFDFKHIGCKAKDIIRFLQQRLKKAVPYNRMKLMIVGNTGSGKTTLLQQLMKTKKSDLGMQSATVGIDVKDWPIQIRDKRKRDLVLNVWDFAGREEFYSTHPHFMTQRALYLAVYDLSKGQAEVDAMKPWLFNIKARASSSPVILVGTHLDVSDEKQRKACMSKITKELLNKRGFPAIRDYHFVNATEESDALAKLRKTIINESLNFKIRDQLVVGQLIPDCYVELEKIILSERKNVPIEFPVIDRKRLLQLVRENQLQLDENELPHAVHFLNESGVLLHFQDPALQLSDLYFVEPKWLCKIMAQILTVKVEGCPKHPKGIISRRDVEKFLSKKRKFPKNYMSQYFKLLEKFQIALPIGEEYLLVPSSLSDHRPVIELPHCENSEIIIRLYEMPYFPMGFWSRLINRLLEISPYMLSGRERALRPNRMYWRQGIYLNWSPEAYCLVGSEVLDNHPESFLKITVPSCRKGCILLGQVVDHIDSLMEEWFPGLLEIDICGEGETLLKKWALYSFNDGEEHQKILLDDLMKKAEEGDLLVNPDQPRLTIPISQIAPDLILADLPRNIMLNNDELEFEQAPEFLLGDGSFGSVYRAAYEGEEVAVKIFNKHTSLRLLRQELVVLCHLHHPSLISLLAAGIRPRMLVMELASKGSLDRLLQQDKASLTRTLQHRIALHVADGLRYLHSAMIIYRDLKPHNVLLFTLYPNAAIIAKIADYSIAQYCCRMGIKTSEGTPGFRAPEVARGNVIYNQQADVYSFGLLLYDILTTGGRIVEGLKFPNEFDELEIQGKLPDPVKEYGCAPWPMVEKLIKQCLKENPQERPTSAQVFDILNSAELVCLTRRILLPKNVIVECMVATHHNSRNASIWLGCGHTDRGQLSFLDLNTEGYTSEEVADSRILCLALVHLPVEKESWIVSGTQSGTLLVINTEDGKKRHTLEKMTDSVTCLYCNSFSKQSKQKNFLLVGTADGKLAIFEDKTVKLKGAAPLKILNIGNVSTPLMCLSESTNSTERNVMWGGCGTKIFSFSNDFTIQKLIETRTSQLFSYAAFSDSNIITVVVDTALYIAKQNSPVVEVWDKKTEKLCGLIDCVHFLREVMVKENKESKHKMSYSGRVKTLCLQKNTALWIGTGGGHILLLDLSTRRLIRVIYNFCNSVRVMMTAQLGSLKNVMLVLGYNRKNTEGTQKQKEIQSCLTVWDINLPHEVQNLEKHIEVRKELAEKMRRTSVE
# T3 sequence (Q5S007 whole entry G2019S): as above
smiles,measurement,setting,value
"COc1cc(S(=O)(=O)N2CCC(N3CCOCC3)CC2)ccc1Nc1cc(C2CC2)c2c(C(F)(F)F)c[nH]c2n1 [Example 223, 4-cyclopropyl-N-(2-methoxy-4-((4-morpholinopiperidin-1-yl)sulfonyl)phenyl)-3-(trifluoromethyl)-1H-pyrrolo[2,3-b]pyridin-6-amine]",GI50,MDA-MB-231 cell line,301 to 1000 nM
same,inhibition at 0.25 µM,human DYRK1A and Tau; 0.25 uM,4.6%
same,inhibition at 0.5 µM,human DYRK1A and Tau; 0.5 uM,12.9%
same,inhibition at 1 µM,human DYRK1A and Tau; 1 uM,29%
same,IC50,[1],< 100 nM
same,IC50,[2],< 100 nM
same,IC50,[3],< 100 nM
same,IC50,[4],< 100 nM
same,GI50,SHP-77,301 to 1000 nM
same,IC50,TTK,< 100 nM
